Where two headings read alike, the source gives them in different places.
Columns and labels:
[1] = tested on: HIV-1/IIIB (CD4^+ ATH8 cells); test: HIV cytopathic effect inhibition assay in ATH8 cells (% protection); format: cell-based
Description: (§1) HIV Cytopathic Effect Inhibition Assay.
(§2) The HIV cytopathic effect inhibition assay was performed as previously described. (Mitsuya, H. & Broder, S. Proc. Nat. Acad. Sci. USA 1986, 83, 1911) Briefly, 200,000 target CD4^+ ATH8 cells were exposed to cell-free HIV-1/IIIB at a dose of 43 (or 1087 for compound 1g) TCID50 (50% tissue culture infectious dose) for 1 h, resuspended in 2 ml of fresh culture media containing interleukin 2, and cultured at 37° C. with or without test compounds in 5% CO2 -containing humidified air. On day 8 in culture, the viable cells were counted by using the dye exclusion method. All compounds, including inactives, were evaluated a minimum of two times in separate experiments. Data reported in Table II are from representative tests. The % protection against the virus was determined by the following formula: 100 times [(the number of viable cells exposed to HIV-1 and cultured in the presence of the compound minus the number of viable cells exposed to HIV-1 and cultured in the absence of compound) divided by (the number of viable cells cultured alone minus the number of viable cells exposed to HIV-1 and cultured in the absence of the compound)]. The % toxicity of a compound on the target cells was determined by the following formula: 100 times [1 minus (the number of total viable cells cultured in the presence of the compound divided by the number of total viable cells cultured alone)]. Calculated percentages equal to or less than zero are expressed as 0%.
^a ATH8 cells were exposed to HIV1/IIIB per cell for 1 hr and
cultured in the presence of various concentrations of each compound. On
day 8, the total viable cells were counted. Orders of numbers in the
column for concentrations correspond to the orders of numbers in other

[2] = tested on: CD4^+ ATH8 cells; test: Toxicity on ATH8 target cells (% toxicity, dye exclusion); format: cell-based
Description: as §1
as §2, with “(Mitsuya, H. & Broder, S. Proc. Nat. Acad. Sci. USA 1986, 83, 1911) Briefly, 200,000 target CD4^+ ATH8 cells were exposed to cell-free HIV-1/IIIB at a dose of 43 (or 1087 for compound 1g) TCID50 (50% tissue culture infectious dose) for 1 h, resuspended in 2 ml of fresh culture media containing interleukin 2, and cultured at 37° C. with or without test compounds in 5% CO2 -containing humidified air.” left out

[3] = molecular target: T1, adenosine deaminase (adenosine aminohydrolase, EC 3.5.4.4) (Bos taurus, UniProt P56658); test: Enzymatic deamination by adenosine deaminase (HPLC); settings: for half-life at 50 µM: bovine, adenosine deaminase
T1 sequence (P56658 1-363): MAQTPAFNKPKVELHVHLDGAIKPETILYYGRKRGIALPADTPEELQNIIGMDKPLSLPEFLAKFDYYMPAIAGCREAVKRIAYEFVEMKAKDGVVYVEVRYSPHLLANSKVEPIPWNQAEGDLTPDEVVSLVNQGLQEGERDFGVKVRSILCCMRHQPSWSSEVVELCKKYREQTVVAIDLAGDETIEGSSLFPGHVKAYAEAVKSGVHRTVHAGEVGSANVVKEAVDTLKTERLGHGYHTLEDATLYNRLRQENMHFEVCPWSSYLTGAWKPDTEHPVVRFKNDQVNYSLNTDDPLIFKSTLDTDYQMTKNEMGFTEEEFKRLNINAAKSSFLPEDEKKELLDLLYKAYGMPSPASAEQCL
Description: FIG. 1. Deamination of dideoxyadenosine analogues by adenosine deaminase. Hydrolysis kinetics and 2'-F-dd-ara-I formation during the incubation of 50 μM N^6 -CH3 -2'-F-dd-ara-A (1f) with 0.7 units/mL of adenosine deaminase at 37° C. A unit of adenosine deaminase is the amount of enzyme which hydrolyzes a standard substrate (e.g., adenosine) at the rate of 1.0 μmole/min at 25° C. and pH 7.5. […] Insert: Adenosine deaminase hydrolysis kinetics for 50 μM ddA and 2'-F-dd-ara-A. The hydrolysis curve for ddA has been extrapolated from kinetics obtained with 0.07 units/mL of adenosine deaminase under identical conditions.
A 50 μl aliquot of a 10 mg/ml suspension of adenosine deaminase (adenosine aminohydrolase, EC 3.5.4.4) from calf intestinal mucosa was centrifuged at 600×g for 3 min. The residue remaining after removal of the (NH4)2 SO4 supernatant was dissolved in 0.5 ml pH 7.4 tris(hydroxymethyl)-aminomethane (Tris) buffer to give an enzyme solution of 1 mg/ml (274 units/ml). […] A pH 7.4 buffer was prepared by adjusting 0.01M Tris to pH 7.4 with 0.5N HCl, The 1.0 HCl , HPLC-grade acetonitrile, monobasic potassium phosphate, sodium hydroxide and ultrapure Tris were all commercially available and were used without further purification.
Enzymatic Deamination of Adenosine Analogues. […] A 50 μL aliquot of substrate solution was diluted with 0.95 ml 0.01M Tris buffer in a 1.5-mL Eppendorf tube and equilibrated at 37° C. in a Dubnoff metabolic shaking incubator. Reaction was initiated by addition of 2.5 μL of adenosine deaminase solution (0.7 unit). At specified time intervals, a 50 μL aliquot of the reaction mixture was withdrawn and quenched by mixing with 0.45 mL cold 2 μM 2'-deoxycoformycin. This diluted sample was ultrafiltered to remove enzyme in a Centrifree Micropartition unit by centrifugation at 600×g at 4° C. in a high speed refrigerated centrifuge. The decrease in substrate concentration was monitored by HPLC analysis of the resultant ultrafiltrate (see below). The ability of 2'-deoxycoformycin to inhibit deamination under the above conditions was evaluated by adding 2 μL of 1.0 mM inhibitor to diluted substrate solutions at the time of equilibration. Reaction, sampling and analysis were carried out as above. […] Initial hydrolysis rates for each substrate concentration were measured through linear least-squares curve fitting of the concentration versus time data for reaction of the first 10% of substrate. KM and vmax values for each substrate were then determined from a graphical lineweaver-Burke plot of these initial rates (FIG. 1).
HPLC Analysis of Dideoxypurine Nucleosides.
Concentrations of dideoxynucleosides were measured by the HPLC analysis of 100 μL aliquots of ultrafiltered samples. A 4.6×250 mm 5-μm Ultrasphere-ODS column, protected by a Waters guard column packed with 37-50 μm Vydac 201SC, was eluted with 10-20% CH3 CN in 0.01M pH 7.0 phosphate buffer at a flow rate of 1.0 mL/min. Dideoxynucleosides and deamination products were detected at the appropriate wavelength of maximum absorption with a Gilson 116 variable wavelength detector. Peak identity was determined from coincidence of retention times with standards and by comparison of on-the-fly UV spectra obtained with a Perkin-Elmer LC-235 diode array detector. Peak areas and peak heights were measured simultaneously on a Spectra-Physics SP4200 computing integrator.

[4] = tested on: ADA; settings: vs ddA, determined previously, slightly different conditions; cited from earlier work
[5] = Octanol-water partition coefficient, microscale shake-flask; settings: octanol/ph 7.0 buffer
Description: Measurement of Octanol-Water Partition Coefficients.
n-Octanol-water partition coefficients (P) were determined by a microscale shake-flask procedure, (Ford, H. et al Abstracts of Papers, 200th National Meeting of the American Chemical Society, Washington, D.C.; American Chemical Society: Washington, D.C., 1990; CARB 13) which was modification of an earlier method (Nahum, A. & Horvath, C. J. Chromatogr. 1980, 192, 315). A 20 μL aliquot of a 0.5 mg/mL DMSO solution of the dideoxynucleoside was dissolved in 1.0 mL of octanol-saturated, pH 7.0, 0.01M potassium phosphate buffer. This was mixed thoroughly with 1.0 ml of buffer-saturated n-octanol in a 2-mL Mixxor apparatus at 24°-26° C. and then allowed to stand for 15 min. The phases were separated, centrifuged at 600×g for 5 min, and the relative concentration of sample in each phase determined by HPLC analysis of a 50 μl aliquot. The partition coefficient was calculated by dividing the absolute area of the appropriate integrated peak from the octanol phase by that of the buffer phase (Table I).
Octanol/pH 7.0 buffer partition coefficients were determined using a newly developed microscale method. […] The addition of a methyl group normally increases the log P value of a compound by about 0.5.

[6] = tested on: human immunodeficiency virus (HIV); settings: background statement; cited from earlier work
[7] = Toxicity on ATH8 target cells (% toxicity, dye exclusion); format: cell-based; settings: human, ath8 cells, 10 μM
Description: as §1
as §2, with “(Mitsuya, H. & Broder, S. Proc. Nat. Acad. Sci. USA 1986, 83, 1911) Briefly, 200,000 target CD4^+ ATH8 cells were exposed to cell-free HIV-1/IIIB at a dose of 43 (or 1087 for compound 1g) TCID50 (50% tissue culture infectious dose) for 1 h, resuspended in 2 ml of fresh culture media containing interleukin 2, and cultured at 37° C. with or without test compounds in 5% CO2 -containing humidified air.” left out

[8] = in vivo; cited from earlier work

Nc1ncnc2c1ncn2[C@@H]1O[C@H](CO)C[C@@H]1F [Compound 1a, 2', 3'-dideoxy-2'-fluoroarabinosyladenine, reference compound]
anti-HIV activity with supplementary ADA (in words) ([1]; ATH8 cells, ADA (0.7 U/mL) added): did not change its activity | anti-HIV activity in the presence of dCF (in words) ([1]; ATH8 cells, dCF added): no important changes in the protection | toxicity in the presence of dCF (in words) [2]: appeared to be potentiated | % Toxicity ([2]; human, 11520 min): 11% | half-life at 50 µM [3]: 1.33 min | half-life at 50 µM ([3]; t1/2 of hydrolysis by adenosine deaminase): 1.33 min | vmax ([3]; pH 7.4 and 37° C.): 2.3 × 10^-1 μmol/min/U | hydrolysis by ADA, times slower than ddA ([3]; vs ddA, 50 μM substrate): 17 times slower | hydrolysis by ADA, times slower than ddA [4]: ca. 10 times slower

O=c1[nH]cnc2c1ncn2[C@@H]1O[C@H](CO)C[C@@H]1F [Compound 1b, 2', 3'-dideoxy-2'-fluoroarabinosylhypoxanthine, reference compound]
logD ([5]; pH 7): -1.21 ± 0.02 | deamination product / product formation (in words) ([3]; 0.7 U/mL ADA, 37° C.): the rate of formation of 1b corresponded to the rate of disappearance of 1f | in vitro activity against HIV (in words) [6]: known active inosine analogue

Nc1ncnc2c1ncn2[C@H]1CC[C@@H](CO)O1 [ddA, dideoxyadenosine, reference compound]
logD ([5]; pH 7, Log P): -0.29 ± 0.01 | % Protection ([1]; 10 μM, with dCF (5 μm), 11520 min): 86% | inhibition at 10 µM ([1]; Human immunodeficiency virus 1, IIIB, ATH-8, 192 h, 10 μM, without dCF): 100% | cytotoxicity at 192 h, 10 µM ([7]; with dCF (5 μm)): 22% | cytotoxicity at 192 h, 10 µM ([7]; without dCF): 0% | toxicity in the presence of dCF (in words) ([2]; ATH8 cells, dCF added): appeared to be potentiated | t1/2 of hydrolysis by adenosine deaminase ([3]; 50 μM, extrapolated from 0.07 units/mL ADA to 0.7 units/mL, 37° C.): 0.083 min | half-life at 50 µM [3]: 0.0833 min

Nc1ccn([C@H]2CC[C@@H](CO)O2)c(=O)n1 [ddC, dideoxycytidine, reference compound]
logD ([5]; pH 7, Log P): -1.33 ± 0.01 | CNS entry (in words) [8]: failure of ddC to achieve significant CNS levels

Cc1ccc(C(=O)Nc2ccc(S(=O)(=O)O)c3cc(S(=O)(=O)O)cc(S(=O)(=O)O)c23)cc1NC(=O)c1cccc(NC(=O)Nc2cccc(C(=O)Nc3cc(C(=O)Nc4ccc(S(=O)(=O)O)c5cc(S(=O)(=O)O)cc(S(=O)(=O)O)c45)ccc3C)c2)c1 [suramin]
HIV replication in presence of compound (in words) [6]: HIV replication is considerably slower

antimoniotungstate
HIV replication in presence of compound (in words) [6]: HIV replication is considerably slower

From US5459256A, “Lipophilic, aminohydrolase-activated prodrugs” (priority 1991, dated 1995)
